# Measurements taken from patent US20240101573A1, “MACROCYCLIC K-RAS G12C INHIBITOR, PREPARATION METHOD THEREFOR AND USE THEREOF” (Abbisko Therapeutics Co., Ltd., priority 2020, published 2024).
# Assays:
# MIA PaCa-2 = assay: Anti-proliferation 2D CTG test (MIA PaCa-2); format: cell-based; conditions: MIAPACA-2 cells, 500 cells/well, 5 days incubation with compound, CTG readout
# Procedure: (§1) When the cell confluency was 80%, the cells were isolated with 0.25% trypsin. The isolated cells were resuspended in 5 mL of fresh cell culture medium and centrifuged to collect the cells. The number of cells were counted at the same time. Then, the cells were suspended in a culture medium at a moderate concentration. The cells were placed into a 96-well plate with 1500 cells/well for H358 and 500 cells/well for MIAPACA-2. The 96-well plate was placed in an incubator at 37° C. and incubated overnight.
# (§2) 2) Day 1: processing of compound
# (§3) A 2 mM stock solution was serially diluted at 10 points at a ratio of 1:3. 5× culture medium containing the compound was transferred to the corresponding wells of 96 wells. The final peak concentration of the compound was […], and the final concentration of DMSO was 0.5%. The 96-well plate was placed in the incubator at 37° C. and incubated for 5 days.
# (§4) 3) Baseline reading. 4) Day 6: reading of signals
# (§5) A detection reagent (CTG) was added at 50 μL/well, and the signals were read in an Envision instrument.
# (§6) The percentage of inhibition ([…]) at each compound concentration was calculated based on the signals from the HPE and ZPE control wells contained in each assay plate and the fluorescence signals from individual compound wells. The inhibition rate in the ZPE control wells containing the enzyme and substrate was 0%, and the inhibition rate in the HPE control wells only containing the substrate was […]. By testing the compound in terms of numeric concentration and inhibition percentage, the compound concentration required for […] inhibition (IC50) was determined using a four-parameter logarithmic dose-response equation. The endpoint value (IC50) of the reference compound was evaluated in each experiment as a quality control measure. If the endpoint value was within three times the expected value, the experiment was considered acceptable.
# H358 = assay: Anti-proliferation 2D CTG test (H358); format: cell-based; conditions: H358 cells, 1500 cells/well, 5 days incubation with compound, CTG readout
# Procedure: as §1, §2, §3, §4, §5, §6
# [1] = Homo sapiens, MIA PaCa-2, 120 h
IC50 (MIA PaCa-2) [nM],IC50 (H358) [nM],IC50 (MIA PaCa-2; [1]) [nM],"IC50 (H358; Homo sapiens, NCI-H358, 120 h) [nM]",SMILES
26,31,–,–,"C=CC(=O)N1CCN(c2nc(=O)n3c4nc(c(F)cc24)-c2c(ccc(Cl)c2F)OCC(OCC)C(O)c2ccnc(C(C)C)c2-3)[C@@H](C)C1 (stereo partly drawn) [Example 69, 2^4-((S)-4-acryloyl-2-methylpiperazin-1-yl)-3^5-chloro-6-ethoxy-2^6,3^6-difluoro-7-hydroxy-1^2-isopropyl-2^1,2^2-dihydro-4-oxa-2(1,7)-pyrido[2,3-d]pyrimidina-1(3,4)-pyridina-3(1,2)-benzocycloheptane-2^2-one]"
3,5,–,–,"C=CC(=O)N1CCN(c2nc(=O)n3c4nc(c(F)cc24)-c2c(ccc(Cl)c2F)OCC(O)C(O)c2ccnc(C(C)C)c2-3)[C@@H](C)C1 (stereo partly drawn) [Example 66, (R)-2^4-((S)-4-acryloyl-2-methylpiperazin-1-yl)-3^5-chloro-2^6,3^6-difluoro-6,7-dihydroxy-1^2-isopropyl-2^1,2^2-dihydro-4-oxa-2(1,7)-pyrido[2,3-d]pyrimidina-1(3,4)-pyridina-3(1,2)-benzocycloheptane-2^2-one]"
15,36,–,–,"C=CC(=O)N1CCN(c2nc(=O)n3c4nc(c(F)cc24)-c2c(F)cccc2OCC(OCCF)C(O)c2ccnc(C(C)C)c2-3)[C@@H](C)C1 (stereo partly drawn) [Example 25, 2^4-((S)-4-acryloyl-2-methylpiperazin-1-yl)-2^6,3^6-difluoro-6-(2-fluoroethoxy)-7-hydroxy-1^2-isopropyl-2^1,2^2-dihydro-4-oxa-2(1,7)-pyrido[2,3-d]pyrimidina-1(3,4)-pyridina-3(1,2)-benzocycloheptane-2^2-one]"
669,977,–,–,"C=CC(=O)N1CCN(c2nc(=O)n3c4nc(c(F)cc24)-c2c(F)cccc2OCC(O)C(OC)c2ccnc(C(C)C)c2-3)[C@@H](C)C1 (stereo partly drawn) [Example 42, (S)-2^4-((S)-4-acryloyl-2-methylpiperazin-1-yl)-7-methoxy-2^6,3^6-difluoro-6-hydroxy-1^2-isopropyl-2^1,2^2-dihydro-4-oxa-2(1,7)-pyrido[2,3-d]pyrimidina-1(3,4)-pyridina-3(1,2)-benzocycloheptane-2^2-one]"
12,9,–,–,"C=CC(=O)N1CCN(c2nc(=O)n3c4nc(c(F)cc24)-c2c(F)cccc2OCC(O)C(O)c2ccnc(C(C)C)c2-3)[C@@H](C)C1 (stereo partly drawn) [Example 1-R, (R)-2^4-((S)-4-acryloyl-2-methylpiperazin-1-yl)-2^6,3^6-difluoro-6,7-dihydroxy-1^2-isopropyl-2^1,2^2-dihydro-4-oxa-2(1,7)-pyrido[2,3-d]pyrimidina-1(3,4)-pyridina-3(1,2)-benzocycloheptane-2^2-one]"

# More lines, now with the values behind:
SMILES,IC50 (MIA PaCa-2) [nM],IC50 (H358) [nM],IC50 (MIA PaCa-2; [1]) [nM],"IC50 (H358; Homo sapiens, NCI-H358, 120 h) [nM]"
"C=CC(=O)N1CCN(c2nc(=O)n3c4nc(c(F)cc24)-c2c(F)cccc2OCC(OCC(F)F)C(O)c2ccnc(C(C)C)c2-3)[C@@H](C)C1 (stereo partly drawn) [Example 33, 2^4-((S)-4-acryloyl-2-methylpiperazin-1-yl)-6-(2,2-difluoroethoxy)-2^6,3^6-difluoro-7-hydroxy-1^2-isopropyl-2^1,2^2-dihydro-4-oxa-2(1,7)-pyrido[2,3-d]pyrimidina-1(3,4)-pyridina-3(1,2)-benzocycloheptane-2^2-one]",154,42,–,–
"C=CC(=O)N1CCN(c2nc(=O)n3c4nc(c(F)cc24)-c2c(F)cccc2OCC(O)C(OCC(F)F)c2ccnc(C(C)C)c2-3)[C@@H](C)C1 (stereo partly drawn) [Example 32, 2^4-((S)-4-acryloyl-2-methylpiperazin-1-yl)-7-(2,2-difluoroethoxy)-2^6,3^6-difluoro-6-hydroxy-1^2-isopropyl-2^1,2^2-dihydro-4-oxa-2(1,7)-pyrido[2,3-d]pyrimidina-1(3,4)-pyridina-3(1,2)-benzocycloheptane-2^2-one]",69,41,–,–
"C=CC(=O)N1C[C@H](C)N(c2nc(=O)n3c4nc(c(F)cc24)-c2c(F)cccc2OCC(O)C(O)c2ccnc(C(C)C)c2-3)C[C@H]1C (stereo partly drawn) [Example 3, (S)-2^4-((2S,5R)-4-acryloyl-2,5-dimethylpiperazin-1-yl)-2^6,3^6-difluoro-6,7-dihydroxy-1^2-isopropyl-2^1,2^2-dihydro-4-oxa-2(1,7)-pyrido[2,3-d]pyrimidina-1(3,4)-pyridina-3(1,2)-benzocycloheptane-2^2-one]",400,1250,–,–
"C=CC(=O)N1CCN(c2nc(=O)n3c4nc(c(F)cc24)-c2c(F)cccc2OCC(OCCF)C(O)c2ccnc(C(C)C)c2-3)[C@@H](C)C1 (stereo partly drawn) [Example 39, (R)-2^4-((S)-4-acryloyl-2-methylpiperazin-1-yl)-2^6,3^6-difluoro-6-(2-fluoroethoxy)-7-hydroxy-1^2-isopropyl-2^1,2^2-dihydro-4-oxa-2(1,7)-pyrido[2,3-d]pyrimidina-1(3,4)-pyridina-3(1,2)-benzocycloheptane-2^2-one]",2,4,–,–
"C=CC(=O)N1CCN(c2nc(=O)n3c4nc(c(F)cc24)-c2c(F)cccc2OCC(OC(C)=O)C(OC(C)=O)c2ccnc(C(C)C)c2-3)[C@@H](C)C1 (stereo partly drawn) [Example 18-S, (S)-2^4-((S)-4-acryloyl-2-methylpiperazin-1-yl)-2^6,3^6-difluoro-1^2-isopropyl-2^2-oxo-2^1,2^2-dihydro-4-oxa-2(1,7)-pyrido[2,3-d]pyrimidina-1(3,4)-pyridina-3(1,2)-benzocycloheptane-6,7-diyl diacetate]",266,351,–,–
"C=CC(=O)N1CCN(c2nc(=O)n3c4nc(c(F)cc24)-c2c(F)cccc2OCC(OCC(F)F)C(O)c2ccnc(C(C)C)c2-3)[C@@H](C)C1 (stereo partly drawn) [Example 53, (R)-2^4-((S)-4-acryloyl-2-methylpiperazin-1-yl)-6-(2,2-difluoroethoxy)-2^6,3^6-difluoro-7-hydroxy-1^2-isopropyl-2^1,2^2-dihydro-4-oxa-2(1,7)-pyrido[2,3-d]pyrimidina-1(3,4)-pyridina-3(1,2)-benzocycloheptane-2^2-one]",16,17,–,–
"C=CC(=O)N1CCN(c2nc(=O)n3c4nc(c(F)cc24)-c2c(F)cccc2OCC(O)C(OC(=O)CC)c2ccnc(C(C)C)c2-3)[C@@H](C)C1 (stereo partly drawn) [Example 6, 2^4-((S)-4-acryloyl-2-methylpiperazin-1-yl)-2^6,3^6-difluoro-6-hydroxy-1^2-isopropyl-2^2-oxo-2^1,2^2-dihydro-4-oxa-2(1,7)-pyrido[2,3-d]pyrimidina-1(3,4)-pyridina-3(1,2)-benzocycloheptane-7-yl propionate]",–,–,10,10
"C=CC(=O)N1CCN(c2nc(=O)n3c4nc(c(F)cc24)-c2c(F)cccc2OCC(OCCF)C(OCCF)c2ccnc(C(C)C)c2-3)[C@@H](C)C1 (stereo partly drawn) [Example 61, 2^4-((S)-4-acryloyl-2-methylpiperazin-1-yl)-2^6,3^6-difluoro-6,7-di(2-fluoroethoxy)-1^2-isopropyl-2^1,2^2-dihydro-4-oxa-2(1,7)-pyrido[2,3-d]pyrimidina-1(3,4)-pyridina-3(1,2)-benzocycloheptane-2^2-one]",–,–,16,38
"C=CC(=O)N1CCN(c2nc(=O)n3c4nc(c(F)cc24)-c2c(F)cccc2OCC(O)C(OCCF)c2ccnc(C(C)C)c2-3)[C@@H](C)C1 (stereo partly drawn) [Example 37, (R)-2^4-((S)-4-acryloyl-2-methylpiperazin-1-yl)-2^6,3^6-difluoro-7-(2-fluoroethoxy)-6-hydroxy-1^2-isopropyl-2^1,2^2-dihydro-4-oxa-2(1,7)-pyrido[2,3-d]pyrimidina-1(3,4)-pyridina-3(1,2)-benzocycloheptane-2^2-one]",5,14,–,–
"C=CC(=O)N1CCN(c2nc(=O)n3c4nc(c(F)cc24)-c2c(F)cccc2OCC(OCC2CC2)C(O)c2ccnc(C(C)C)c2-3)[C@@H](C)C1 (stereo partly drawn) [Example 49, (R)-2^4-((S)-4-acryloyl-2-methylpiperazin-1-yl)-6-(cyclopropylmethoxy)-2^6,3^6-difluoro-7-hydroxy-1^2-isopropyl-2^1,2^2-dihydro-4-oxa-2(1,7)-pyrido[2,3-d]pyrimidina-1(3,4)-pyridina-3(1,2)-benzocycloheptane-2^2-one]",6,7,–,–
"C=CC(=O)N1C[C@H](C)N(c2nc(=O)n3c4nc(c(F)cc24)-c2c(F)cccc2OCC(O)C(OCC)c2ccnc(C(C)C)c2-3)C[C@H]1C (stereo partly drawn) [Example 57, (R)-2^4-((2S,5R)-4-acryloyl-2,5-dimethylpiperazin-1-yl)-7-ethoxy-2^6,3^6-difluoro-6-hydroxy-1^2-isopropyl-2^1,2^2-dihydro-4-oxa-2(1,7)-pyrido[2,3-d]pyrimidina-1(3,4)-pyridina-3(1,2)-benzocycloheptane-2^2-one]",18,35,–,–
